Measurements from paper PMC10533401, “Development of two mouse strains conditionally expressing bright luciferases with distinct emission spectra as new tools for in vivo imaging” (Lab Animal, 2023).

System: T1, oFluc
T1 construct: gene firefly luciferase; not fused to Venus
Test: luminescence intensity, luminometer, Michaelis-Menten fit
Assay type: biochemical, Pyrocoelia matsumurai
Conditions: 0.1 M citric acid/0.1 M Na2HPO4 pH 7.0, 1 mM ATP, 2 mM MgSO4, D-luciferin 0-990 µM; partially purified enzyme
Description: luminescence intensity, luminometer, Michaelis-Menten fit on oFluc | Km for oFluc or Venus/Akaluc for D-luciferin or AkaLumine were determined

For O=C(O)[C@H]1CSC(c2nc3ccc(O)cc3s2)=N1 [D-luciferin], which Km is on record?
The Km was 31.9 µM.
